# Source: publication PMC2680211 (Bioorganic & medicinal chemistry, 2008)
# Biological target: hKOPR (Homo sapiens, UniProt P41145)
# Format: biochemical
# hKOPR, sequence (P41145 whole entry): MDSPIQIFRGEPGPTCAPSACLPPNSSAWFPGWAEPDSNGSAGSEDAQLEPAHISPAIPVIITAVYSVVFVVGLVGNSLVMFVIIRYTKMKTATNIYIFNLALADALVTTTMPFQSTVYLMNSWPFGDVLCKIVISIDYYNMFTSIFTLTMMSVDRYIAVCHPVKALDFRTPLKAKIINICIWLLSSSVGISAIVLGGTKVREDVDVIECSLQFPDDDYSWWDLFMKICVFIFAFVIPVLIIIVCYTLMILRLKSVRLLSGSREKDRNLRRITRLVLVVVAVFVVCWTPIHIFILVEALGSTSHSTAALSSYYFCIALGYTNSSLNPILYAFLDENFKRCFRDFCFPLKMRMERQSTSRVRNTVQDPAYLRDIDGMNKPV
Compound,KOPR agonism in the [35S]GTPγS functional assay (in words),"KOPR antagonism: effect on U50,488-induced [35S]GTPγS binding","reduction of [35S]GTPγS binding induced by U50,488"
"COC(=O)[C@@H]1C[C@H](OC(C)=O)C(=O)[C@H]2[C@@]1(C)CC[C@H]1C(=O)O[C@H](c3ccoc3Br)C[C@]21C [Compound 2, 16-bromosalvinorin A]",highly potent KOPR agonist,–,–
"COC(=O)[C@@H]1C[C@H](OC(C)=O)C(=O)[C@H]2[C@@]1(C)CC[C@H]1C(=O)O[C@@H](c3ccoc3)C[C@]21C [Compound 6, 12-epi-Salvinorin A]",partial agonist effects,"partially blocked the effect of U50,488",significantly reduced
COC(=O)[C@@H]1C[C@H](OC(C)=O)C(=O)[C@H]2[C@@]1(C)CC[C@H]1C(=O)O[C@H](C(=O)O)C[C@]21C [Compound 7],weak agonist,–,–
COC(=O)[C@@H]1C[C@H](OC(C)=O)C(=O)[C@H]2[C@@]1(C)CC[C@H]1C(=O)O[C@H](COC(C)=O)C[C@]21C [Compound 11],weak KOPR agonist,–,–
